Some test systems named below: UO-31; 786-0; UACC-257; NCI-H226; A498; SR; M14; SK-MEL-2; MOLT-4; HL-60; SN12C; HCT-15; MDA-MB-231; NCI-H460; HCC 2998; SF-539; DU-145; OVCAR-4; CAKI-1; RXF 393.
Assay in all cases: NCI tumour cell line growth inhibition, 48 h

The results in this text go back to ChEMBL document CHEMBL1201862, “PubChem BioAssay data set” (2004).

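1) Cells in 96-well plates. 2) Compound, 48 h, 5 concentrations. 3) Linear interpolation between surrounding doses. 4) Unreached endpoint = highest concentration. GI50 is the concentration that inhibits growth by half.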 The source made the active and inactive calls. No stated cut-off is given here; in the data, active = GI50 up to about 1.1 µM and inactive = higher. A value given as a limit tells only on which side of the number the result lay.

As for `CCOP(=O)(OCC)/C(C#N)=C/c1ccc(-c2cc(C(F)(F)F)cc(C(F)(F)F)c2)o1`, the GI50 is 16.8 µM (inactive) with UO-31; 12.2 µM (inactive) in the experiment on 786-0; 16.3 µM (inactive) with UACC-257; 14.8 µM (inactive) in the experiment with NCI-H226; 12.4 µM (inactive) with A498; 7.43 µM (inactive) with SR. Further, the GI50 is 10.2 µM (inactive) in the experiment on M14; 20.3 µM (inactive) with SK-MEL-2; 3.71 µM (inactive) in the experiment on MOLT-4; 3.4 µM (inactive) with HL-60; 15.1 µM (inactive) with SN12C; 6.38 µM with HCT-15. Moreover, the GI50 with MDA-MB-231 is 13.7 µM (inactive); in the experiment with NCI-H460 it was 6.38 µM (inactive); in the experiment with HCC 2998 it was 8.45 µM (inactive); in the experiment on SF-539 it was 14.9 µM (inactive); with DU-145, 14.6 µM (inactive).

As for `C[C@H]1C(=O)C2=C[C@H]1CCC(=O)[C@]1(C)CCCC(C)(C)[C@H]1C[C@H]2O`, the GI50 with UO-31 is 27.4 µM (inactive); in the experiment on 786-0 it was 17.1 µM (inactive); in the experiment with UACC-257, 32.3 µM (inactive); with OVCAR-4, 48.6 µM (inactive); with NCI-H226, 19.7 µM (inactive); with A498, 12.1 µM (inactive). Moreover, the GI50 was 17.5 µM (inactive) in the experiment on SR; 13.2 µM (inactive) in the experiment with M14; > 100 µM (inactive) in the experiment with SK-MEL-2; 22.1 µM (inactive) in the experiment on MOLT-4; 16 µM (inactive) in the experiment on HL-60; 26.9 µM (inactive) with SN12C. For the same compound, the GI50 with HCT-15 was 14.3 µM; in the experiment with MDA-MB-231, 5.38 µM (inactive); with NCI-H460, 21.9 µM (inactive); in the experiment on CAKI-1 it was 22.4 µM (inactive); with SF-539, 15.4 µM (inactive); in the experiment on DU-145 it was 28.2 µM (inactive). In the experiment with RXF 393, the GI50 is 11.5 µM (inactive).

For `COc1ccc(OC)c2c1ccc1c(C)c3ccccc3c(C)c12`, the GI50 in the experiment on UO-31 is 82.2 µM (inactive); in the experiment on 786-0, > 100 µM (inactive); in the experiment with UACC-257, > 100 µM (inactive); in the experiment on OVCAR-4 it was 79.4 µM (inactive); in the experiment with NCI-H226, > 100 µM (inactive); in the experiment with A498, 61 µM (inactive). Also, the GI50 in the experiment with SR is 36.6 µM (inactive); in the experiment with M14 it was 82 µM (inactive); with SK-MEL-2, > 100 µM (inactive); in the experiment on MOLT-4, 88.9 µM (inactive); with HL-60, 57.1 µM (inactive); in the experiment with SN12C, 22.9 µM (inactive). Moreover, the GI50 with HCT-15 was 18 µM; in the experiment with MDA-MB-231 it was 16 µM (inactive); with NCI-H460 it was 71.9 µM (inactive); in the experiment on HCC 2998, 15.8 µM (inactive); in the experiment with CAKI-1, > 100 µM (inactive); with DU-145, > 100 µM (inactive).

In the case of `CC1=NN(c2ccccc2)C(=O)C1/N=N/c1ccc(S(N)(=O)=O)cc1` (stereo not drawn), the GI50 in the experiment on UO-31, in the experiment on 786-0, in the experiment with UACC-257, with OVCAR-4, with NCI-H226 and with A498 was > 100 µM (inactive) in each case. For the same compound, the GI50 in the experiment on SR, with M14, in the experiment with SK-MEL-2, in the experiment on MOLT-4, in the experiment with HL-60 and in the experiment on SN12C was > 100 µM (inactive) each time. Also, the GI50 was over 100 µM in the experiment with HCT-15; > 100 µM (inactive) with MDA-MB-231; > 100 µM (inactive) in the experiment on NCI-H460; > 100 µM (inactive) in the experiment on CAKI-1; > 100 µM (inactive) in the experiment with SF-539; > 100 µM (inactive) with DU-145. Also, in the experiment with RXF 393, the GI50 was > 100 µM (inactive).

Regarding `COc1cc2c(cc1OCCCCCOc1cc3c(cc1OC)C(=O)N1CCC[C@H]1CN3)N=C[C@@H]1CCCN1C2=O`, the GI50 in the experiment with UO-31 is 12.3 µM (inactive); in the experiment on 786-0 it was 3.94 µM (inactive); with UACC-257 it was 12.3 µM (inactive); with OVCAR-4, 25.6 µM (inactive); in the experiment with NCI-H226 it was 2.48 µM (inactive); in the experiment on SR, 0.249 µM (active). Also, the GI50 was 2.77 µM (inactive) in the experiment with M14; 3.27 µM (inactive) in the experiment with SK-MEL-2; 2.4 µM (inactive) in the experiment on MOLT-4; 4.3 µM (inactive) in the experiment with HL-60; 0.509 µM (active) in the experiment with SN12C; 13.7 µM with HCT-15. The GI50 with MDA-MB-231 is 2.49 µM (inactive); with NCI-H460, 3.77 µM (inactive); with CAKI-1, 9.48 µM (inactive); in the experiment with SF-539, 3.18 µM (inactive); with DU-145 it was 11.1 µM (inactive); in the experiment on RXF 393, 17 µM (inactive).

On to `O=C1NNC(=O)c2ccccc2SSc2ccccc2C(=O)NNC(=O)c2ccccc2SSc2ccccc21`, for which the GI50 with UO-31 is 3.39 µM (inactive); in the experiment with 786-0, 13.5 µM (inactive); with UACC-257, 19.9 µM (inactive); in the experiment on OVCAR-4, 33.7 µM (inactive); in the experiment on NCI-H226, > 50 µM (inactive); with SR, 2.55 µM (inactive). Moreover, the GI50 is 24.4 µM (inactive) in the experiment with M14; 26.8 µM (inactive) with SK-MEL-2; 2.94 µM (inactive) in the experiment with MOLT-4; 6.7 µM (inactive) in the experiment with HL-60; 12.9 µM (inactive) with SN12C; 8.99 µM in the experiment on HCT-15. Moreover, the GI50 is 32.4 µM (inactive) in the experiment on MDA-MB-231; 5.97 µM (inactive) in the experiment on NCI-H460; > 100 µM (inactive) in the experiment on HCC 2998; 13.2 µM (inactive) with CAKI-1; 17.3 µM (inactive) in the experiment with SF-539; 21.4 µM (inactive) in the experiment on DU-145. Besides, in the experiment with RXF 393, the GI50 is > 50 µM (inactive).

Turning to `O=C(O)c1nnsc1-c1csnn1`, the GI50 in the experiment with UO-31, in the experiment with 786-0, in the experiment on UACC-257, with OVCAR-4, in the experiment on NCI-H226 and in the experiment on A498 was > 100 µM (inactive) throughout. For the same compound, the GI50 in the experiment with SR is 54.6 µM (inactive); in the experiment with M14, > 100 µM (inactive); in the experiment with SK-MEL-2, > 100 µM (inactive); in the experiment on MOLT-4 it was > 100 µM (inactive); in the experiment on HL-60, > 100 µM (inactive); in the experiment with SN12C, > 100 µM (inactive). The GI50 was over 100 µM in the experiment with HCT-15; > 100 µM (inactive) in the experiment with MDA-MB-231; > 100 µM (inactive) with NCI-H460; > 100 µM (inactive) with CAKI-1; > 100 µM (inactive) with SF-539; > 100 µM (inactive) in the experiment on DU-145. Besides, in the experiment on RXF 393, the GI50 was > 100 µM (inactive).

For the compound `CC1(C)O[C@@H]2[C@@H](COC(C)(C)O[C@H]2C2SCCCS2)O1`, the GI50 with UO-31, with 786-0, with OVCAR-4, in the experiment with A498, with M14 and with SK-MEL-2 was > 100 µM (inactive) each time. The GI50 with MOLT-4 was > 100 µM (inactive); with SN12C it was > 100 µM (inactive); with HCT-15 it was over 100 µM; with MDA-MB-231, > 100 µM (inactive); in the experiment on NCI-H460 it was > 100 µM (inactive); in the experiment on HCC 2998 it was > 100 µM (inactive). Besides, the GI50 with CAKI-1, in the experiment with SF-539, with DU-145 and in the experiment on RXF 393 was > 100 µM (inactive) throughout.

Turning to `Nc1c(-c2nc3ccccc3s2)c2ccc([N+](=O)[O-])cc2c(=O)n1-c1cccc(C(=O)O)c1`, the GI50 with UO-31 is 24.1 µM (inactive); in the experiment on 786-0 it was 31.7 µM (inactive); with UACC-257, 20.9 µM (inactive); in the experiment on OVCAR-4, 31.9 µM (inactive); with NCI-H226, 23 µM (inactive); in the experiment with SR, 15.8 µM (inactive). In addition, the GI50 with SK-MEL-2 was 20.9 µM (inactive); with HL-60 it was 18.1 µM (inactive); in the experiment on SN12C it was 30.3 µM (inactive); in the experiment on HCT-15 it was 27.4 µM; with MDA-MB-231 it was 17.9 µM (inactive); in the experiment on NCI-H460 it was 27 µM (inactive). In addition, the values for the GI50 in the experiment on HCC 2998, in the experiment on CAKI-1 and in the experiment with DU-145 were 62.5 µM (inactive), 27.5 µM (inactive) and 23.3 µM (inactive), respectively.

With `N#CC(c1ccccc1)(c1ccccc1)[C@@H](c1ccccc1)[C@H](Cc1ccccc1)NS(=O)(=O)c1ccccc1`, the GI50 was > 100 µM (inactive) with UO-31; > 100 µM (inactive) in the experiment with 786-0; > 100 µM (inactive) in the experiment on UACC-257; > 100 µM (inactive) in the experiment with OVCAR-4; > 100 µM (inactive) with A498; 83.9 µM (inactive) with SR. In addition, the GI50 in the experiment on M14 was > 100 µM (inactive); with SK-MEL-2, > 100 µM (inactive); in the experiment on MOLT-4, 15.7 µM (inactive); in the experiment on HL-60, 4.17 µM (inactive); in the experiment with SN12C, > 100 µM (inactive); in the experiment with HCT-15, over 100 µM. Besides, the GI50 in the experiment on MDA-MB-231 is > 100 µM (inactive); in the experiment with NCI-H460 it was 66.7 µM (inactive); in the experiment on HCC 2998, > 100 µM (inactive); with CAKI-1 it was > 100 µM (inactive); in the experiment on SF-539, > 100 µM (inactive); in the experiment on DU-145 it was > 100 µM (inactive). In the experiment with RXF 393, the GI50 is 84.7 µM (inactive).

Take `Nc1ncn2c(n1)nc1ccccc12`: the GI50 in the experiment with UO-31 was > 100 µM (inactive); with 786-0, > 100 µM (inactive); in the experiment with UACC-257, > 100 µM (inactive); in the experiment on OVCAR-4, > 100 µM (inactive); in the experiment with NCI-H226 it was > 100 µM (inactive); in the experiment with A498, 57 µM (inactive). Besides, the GI50 with SR, in the experiment on M14, with SK-MEL-2, in the experiment on MOLT-4, with HL-60 and in the experiment on SN12C was > 100 µM (inactive) throughout. For the same compound, the GI50 in the experiment with HCT-15 was over 100 µM; in the experiment with MDA-MB-231, > 100 µM (inactive); with NCI-H460, > 100 µM (inactive); in the experiment with CAKI-1, > 100 µM (inactive); in the experiment on SF-539 it was > 100 µM (inactive); in the experiment on DU-145, > 100 µM (inactive). Besides, the GI50 in the experiment on RXF 393 is 18.6 µM (inactive).
